For one assay, the system named is DRB5. Description: DRB5.
The subject of the next assay is DR4. The assay is described as follows: DR4.
A further assay deals with T1, HLA-DRB5 (DRB5*0101) (Homo sapiens, UniProt P01903+Q30154).
T1 construct: endogenous in cells; host or cells: homozygous EBV-transformed human B lymphocyte lines; immunopurified with antibody L243
Description: biochemical. The assay is classed as binding.

The next assay concerns DRB4. The assay is described as follows: DRB4. An excerpt: (§1) Table printed on a drawing sheet, Figure 2
Where the first naming reader finds the target: head: DRB4

The next assay deals with DR11. The assay is described as follows: DR11.
Text: as §1
Where the first naming reader finds the target: head: DR11

A further assay has as its system DR7. The assay is described as follows: DR7.
The next assay deals with HLA-DR7 (DRB1*0701) (Homo sapiens, UniProt P01903+P01911, A100R/A102G/A103Q/D57E/D86V/E43K/F76Y/K127E/L162R/M171V/P40G/Q125H/Q99D/R33Q/R42Y/R54Q/S133A/S66F/T210M/V115G/Y107V/Y59L/Y89S). The assay is described as follows: biochemical. Format: binding.
In a further assay the test system is DP401. The assay is described as follows: DP401.
The test system of a further assay is DR3. Description: DR3.
Text: as §1
Where the first naming reader finds the target: head: DR3

A further assay deals with DR15. Description: DR15.
The target of a further assay is T2, HLA-DR1 (DRB1*0101) (Homo sapiens, UniProt P01903+P01911, A100R/D57E/F55L/F60I/F76Y/I96L/L162R/M171V/P40L/Q125E/R42F/V115G/Y59C).
T2 construct: endogenous in cells; host or cells: homozygous EBV-transformed human B lymphocyte lines; immunopurified with antibody L243
Description: biochemical. The assay is classed as binding. Particulars: DRB1*0101.

The next assay concerns the target HLA-DP402 (DPB1*0402) (Homo sapiens, UniProt P04440+P20036, A65V/A84D/A85E/L207M). The assay is described as follows: biochemical. Format: binding. Particulars: DP*0402; read-out: binds with good affinity to DP402.
Another assay addresses HLA-DR13 (DRB1*1301) (Homo sapiens, UniProt P01903+P01911, A100E/A169T/K41T/L162R/M171V/P40S/Q125H/Q178H/Q39Y/Q99D/R42S/S66N/T262R/W38E/Y61H). Description: biochemical. Format: binding.
A further assay deals with HLA-DR11 (DRB1*1101) (Homo sapiens, UniProt P01903+P01911, A100R/A169T/A87E/I96F/K41T/L162R/M171V/P40S/Q125H/Q178H/Q39Y/Q99D/R42S/S66Y/T262R/V115G/W38E). The assay is described as follows: biochemical. The assay is classed as binding.
HLA-DR11 (DRB1*1101), sequence (P01903 26-254 limits assumed, other chains not shown): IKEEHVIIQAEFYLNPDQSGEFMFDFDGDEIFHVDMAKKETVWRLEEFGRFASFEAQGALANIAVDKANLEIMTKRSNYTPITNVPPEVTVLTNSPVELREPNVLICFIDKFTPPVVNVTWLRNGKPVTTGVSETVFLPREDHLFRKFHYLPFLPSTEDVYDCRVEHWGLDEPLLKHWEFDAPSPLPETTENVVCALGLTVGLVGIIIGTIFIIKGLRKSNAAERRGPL
Another assay deals with DR13. Description: DR13.
Text: as §1
Where the first naming reader finds the target: head: DR13

The target of a further assay is T3, HLA-DR15 (DRB1*1501) (Homo sapiens, UniProt P01903+P01911).
T3 construct: endogenous in cells; host or cells: homozygous EBV-transformed human B lymphocyte lines; immunopurified with antibody L243
The assay is described as follows: biochemical. The assay is classed as binding.

A further assay deals with DRB3. Description: DRB3.
The test system of a further assay is DR1. The assay is described as follows: DR1.
The target in another assay is T4, HLA-DR4 (DRB1*0401) (Homo sapiens, UniProt P01903+P01911, A100K/A169T/F76Y/I96L/K127E/L162R/M171V/N62H/P40V/Q125Y/R42H/S133A/S149N/S66Y/V115G/V209L/W38E).
T4 construct: endogenous in cells; host or cells: homozygous EBV-transformed human B lymphocyte lines; immunopurified with antibody L243
Description: biochemical. The assay is classed as binding.

For a further assay, the system named is DP402. Description: DP402.
For a further assay, the target named is T5, HLA-DRB4 (DRB4*0101) (Homo sapiens, UniProt P01903+P13762, G164S).
T5 construct: endogenous in cells; host or cells: homozygous EBV-transformed human B lymphocyte lines; immunopurified with antibody L243
Description: biochemical. Format: binding.

The subject of assay [1] is T lymphocytes derived from PBMCs from patients chronically infected with HCV. Format: cell-based, human. Particulars: supernatant 48 h, —: not detected.
The target in another assay is T6, HLA-DR3 (DRB1*0301) (Homo sapiens, UniProt P01903+P01911, A100K/A102G/A103R/A169T/F55Y/I96L/K41T/L162R/M171V/P40S/Q125H/Q178H/Q39Y/R42S/S66N/T106N/T262R/W38E/Y61H).
T6 construct: endogenous in cells; host or cells: homozygous EBV-transformed human B lymphocyte lines; immunopurified with antibody L243
Description: biochemical. The assay is classed as binding. Particulars: tracer MT 2-16, read-out: IC50, binding to HLA-DR3.

Assay [2] has as its system CD4+ T lymphocyte lines derived from a seronegative individual. Description: IFN-γ ELISPOT after in vitro immunization. The assay is classed as cell-based, human. Particulars: after 4 restimulations; for response of line P014/A (T lymphocytes secreting IFN-γ): FIG. 5A; for response of line P014/C (T lymphocytes secreting IFN-γ): FIG. 5C. The method, then:
The ability of the peptides having good affinity for the HLA II molecules to induce stimulation of specific T lymphocytes in vitro was evaluated using blood samples from individuals seronegative for HCV. This involves evaluating the ability to recruit CD4+ precursor lymphocytes although they are, in a naïve individual, at very low frequency, i.e. to carry out an immunization in vitro by means of these peptides.
Peripheral blood mononuclear cells (PBMCs) were separated on a Ficoll gradient. The PBMCs were then cultured in AIM V medium (Life Technologies) and incubated in flasks, in an incubator at 37° C. in the presence of 5% of CO2. After overnight incubation, the non-adherent cells were recovered and loaded onto an LS+column (Miltenyi), and the CD4+ T lymphocytes thus purified were then frozen. The adherent cells were incubated for 5 days in AIM V medium containing 1000 U/ml of GM-CSF and 1000 U/ml of IL-4, and the cells that had differentiated into dendritic cells were then cultured for 2 days in the presence of 1 μg/ml of LPS, 1000 U/ml of IL-4 and 1000 U/ml of GM-CSF, so as to induce their maturation.
The mature dendritic cells (100 000 cells/well) were then incubated with a mixture of peptides (10 μg of each peptide), for 5 hours at 37° C. The mature dendritic cells were subsequently washed and then incubated, in the presence of the CD4+ T lymphocytes (100 000 cells/well) thawed beforehand, in medium containing 1000 U/ml of IL-6 and 10 ng/ml of IL-12. After 7 days, the culture was restimulated a first time by means of mature dendritic cells that had been thawed and loaded with the mixture of peptides beforehand, in medium containing IL-2 (10 U/ml) and IL-7 (5 ng/ml). 7 days later, the culture was restimulated, in a similar manner, in a medium containing no IL-2. After two further stimulations, under the above conditions, the cells were assayed by ELISPOT, in the following way:
[…]. After washing with PBS buffer and then with PBS/0.05% Tween, 100 μl of biotin-conjugated anti-IFNγ secondary antibody (7-B6-1-biotin, Mabtech), diluted to 1 μg/ml in PBS containing 0.05% Tween 20 and 1% BSA, were added to each well. After incubation for one hour, the plates were washed again, and incubated with 100 μl/well of Extravidin-AKP (No. 2636, SIGMA), diluted to 1/5000 in PBS containing 0.05% Tween 20 and 1% BSA. The immunoenzymatic reaction was then visualized by means of the kit No. 170-6432 (Biorad).

Where [3] appears, read: read-out: binds with good affinity to DRB5.
Where [4] appears, read: read-out: binds with good affinity to DR1.
Setting [5] is: read-out: binds with good affinity to DR11.

The text below walks through data of patent US20060110401A1, “Mixture of peptides from c and ns3 proteins of the hepatitis c virus and applications thereof” (priority 2002, published 2006).

Read-outs that look alike come from different tables or passages of the source. Residues, ends and D or L forms follow the SMILES beside them.

For the compound `CC[C@H](C)[C@H](NC(=O)[C@H](CCC(N)=O)NC(=O)CNC(=O)CNC(=O)CNC(=O)[C@@H]1CCCN1C(=O)[C@H](Cc1ccccc1)NC(=O)[C@H](CCCCN)NC(=O)[C@@H](NC(=O)[C@H](CC(=O)O)NC(=O)[C@H](CCC(N)=O)NC(=O)[C@@H]1CCCN1)C(C)C)C(=O)N[C@H](C(=O)NCC(=O)NCC(=O)N[C@H](C(=O)N[C@@H](Cc1ccc(O)cc1)C(=O)N[C@@H](CC(C)C)C(=O)N[C@@H](CC(C)C)C(=O)N1CCC[C@H]1C(=O)N[C@@H](CCCNC(=N)N)C(=O)N[C@@H](CCCNC(=N)N)C(=O)NCC(=O)N1CCC[C@H]1C(=O)N[C@@H](CCCNC(=N)N)C(=O)N[C@@H](CC(C)C)C(=O)NCC(=O)N[C@H](C(=O)N[C@@H](CCCNC(=N)N)C(=O)O)C(C)C)C(C)C)C(C)C` [1C 19-47], the IC50 in the assay with DRB5 was 0.009 µM; in the assay on DR4, 70 µM; at HLA-DRB5 (DRB5*0101) (setting [3]), less than 1 µM; in the assay with DRB4 it was 6 µM; with DR11, 0.058 µM; with DR7 it was 0.483 µM. Moreover, the IC50 on HLA-DR7 (DRB1*0701) (read-out: binds with good affinity to DR7) is less than 1 µM; with DP401, 4.52 µM; with DR3 it was greater than 100 µM; in the assay on DR15, 0.158 µM; on HLA-DR1 (DRB1*0101) (setting [4]), less than 1 µM; on HLA-DP402 (DPB1*0402), less than 1 µM. In addition, the IC50 is less than 1 µM at HLA-DR13 (DRB1*1301) (read-out: binds with good affinity to DR13); less than 1 µM on HLA-DR11 (DRB1*1101) (setting [5]); 0.288 µM in the assay with DR13; less than 1 µM on HLA-DR15 (DRB1*1501) (DRB1*1501, read-out: binds with good affinity to DR15); greater than 100 µM with DRB3.
With `CC[C@H](C)[C@H](NC(=O)[C@H](CS)NC(=O)CNC(=O)[C@H](CC(C)C)NC(=O)[C@H](CC(C)C)NC(=O)CNC(=O)[C@H](CCCNC(=N)N)NC(=O)[C@@H](N)[C@@H](C)O)C(=O)N[C@H](C(=O)N[C@H](C(=O)N[C@@H](CO)C(=O)N[C@@H](CC(C)C)C(=O)N[C@H](C(=O)NCC(=O)N[C@@H](CCCNC(=N)N)C(=O)N[C@@H](CC(=O)O)C(=O)N[C@@H](CCCCN)C(=O)N[C@@H](CC(N)=O)C(=O)N[C@@H](CCC(N)=O)C(=O)N[C@H](C(=O)O)C(C)C)[C@@H](C)O)[C@@H](C)O)[C@@H](C)CC` [9N 1036-1055] (H-TRGLLGCIITSLTGRDKNQV-OH; N-terminus and C-terminus assumed), the IC50 in the assay with DR1 is 0.093 µM; in the assay on DRB5, 0.01 µM; with DR4, 0.06 µM; at HLA-DRB5 (DRB5*0101) (setting [3]), less than 1 µM; at HLA-DRB5 (DRB5*0101) (tracer HA 306-318, read-out: IC50, binding to HLA-DRB5) it was 0.053 µM; in the assay with DRB4, 0.15 µM. Moreover, the IC50 at HLA-DR4 (DRB1*0401) (read-out: binds with good affinity to DR4) is less than 1 µM; at HLA-DR4 (DRB1*0401) (tracer HA 306-318, read-out: IC50, binding to HLA-DR4), 0.95 µM; with DP402 it was 4.58 µM; on HLA-DR7 (DRB1*0701) (read-out: IC50, binding to HLA-DR7) it was 2.6 µM; in the assay with DP401 it was 5.33 µM; in the assay on DR3, 6 µM. Besides, the IC50 was 10 µM with DR15; less than 1 µM on HLA-DRB4 (DRB4*0101) (read-out: binds with good affinity to DRB4); 1 µM on HLA-DRB4 (DRB4*0101) (tracer E2/E168, read-out: IC50, binding to HLA-DRB4); 0.051 µM on HLA-DR1 (DRB1*0101) (competition with biotinylated tracer HA 306-318, read-out: IC50, binding to HLA-DR1); less than 1 µM at HLA-DR1 (DRB1*0101) (setting [4]); greater than 100 µM on HLA-DR13 (DRB1*1301) (tracer B1 21-36, read-out: IC50, binding to HLA-DR13). In addition, the IC50 was less than 1 µM on HLA-DR11 (DRB1*1101) (setting [5]); 0.7 µM on HLA-DR11 (DRB1*1101) (tracer HA 306-318, read-out: IC50, binding to HLA-DR11); greater than 100 µM at HLA-DR3 (DRB1*0301); 5.5 µM at HLA-DR15 (DRB1*1501) (read-out: IC50, binding to HLA-DR15). Further, the IL10 in assay [1] (patient 067) was found to be 58 pg/mL; in [1] (patient 078), 58 pg/mL; in assay [1] (patient 659), 18 pg/mL; in assay [1] (patient 815) it was 156 pg/mL. In addition, in assay [1] (patient 862), the IL2 was determined as 29.1 pg/mL.
As for GIFRAAVCTRGVAKA [15N 1178-1192], in assay [2], the “response of line P014/A (T lymphocytes secreting IFN-γ)” value is on record as “responds” and the “response of line P014/C (T lymphocytes secreting IFN-γ)” value was “responds”.
For KVLVLNPSVAATLGF [18N 1250-1264], the “response of line P014/A (T lymphocytes secreting IFN-γ)” value in [2] was “responds”.
Turning to RLRAYMNTPGLPVAQ [28N 1538-1552], in assay [2], the “response of line P014/C (T lymphocytes secreting IFN-γ)” value is on record as “responds”.
VSKGWRLLAPITAYA [8N 1019-1033]: in [2] (line P014/B, FIG. 5B), the “response of line P014/B (T lymphocytes secreting IFN-γ)” value was “responds”.
